Reference: patent US6489098B1, “Means and methods for monitoring nucleoside reverse transcriptase inhibitor antiretroviral therapy and guiding therapeutic decisions in the treatment of HIV/AIDS” (ViroLogic, Inc., priority 1998, dated 2002)

Key:
[1] = test system: ZDV-resistant HIV isolates; settings: cited from earlier work
[2] = test system: HIV-1 RT mutant resistance test vector M41L-T69SSA-T215Y-RTV; assay: Phenotypic susceptibility assay, site directed RTV M41L+T69SSA+T215Y; type: cell-based; settings: for effect on susceptibility (words): RTV with M41L+T69SSA+T215Y
Description: (§1) Resistance tests were carried out with resistance test vectors using two host cell types. Resistance test vector viral particles were produced by a first host cell (the resistance test vector host cell) that was prepared by transfecting a packaging host cell with the resistance test vector and the packaging expression vector. The resistance test vector viral particles were then used to infect a second host cell (the target host cell) in which the expression of the indicator gene is measured.
(§2) The resistance test vectors containing a functional luciferase gene cassette were constructed and host cells were transfected with the resistance test vector DNA. The resistant test vectors contained patient-derived reverse transcriptase and protease sequences that were either susceptible or resistant to the antiretroviral agents, such as nucleoside reverse transcriptase inhibitors, non-nucleoside reverse transcriptase inhibitors and protease inhibitors. The resistance test vector viral particles produced by transfecting the resistance test vector DNA into host cells, either in the presence or absence of protease inhibitors, were used to infect target host cells grown either in the absence of NRTI or NNRTI or In the presence of increasing concentrations of the drug. The amount of luciferase activIty produced in infected target host cells in the presence of drug was compared to the amount of luciferase produced in infected target host cells in the absence of drug. Drug resistance was measured as the amount of drug required to inhibit by 50% the luciferase activity detected in the absence of drug (Inhibitory concentration 50%, IC50). The IC50 values were determined by plotting percent drug inhibition vs. log 10 drug concentration.
(§3) Host cells were seeded in 10-cm-diameter dishes and were transfected several days after plating with resistance test vector plasmid DNA and the envelope expression vector. Transfections were performed using a calcium-phosphate precipitation procedure. The cell culture media containing the DNA precipitate was replaced with fresh medium, from one to 24 hours, after transfection. Cell culture media containing resistance test vector viral particles was harvested one to four days after transfection and was passed through a […] filter before being stored at −80° C. HIV capsid protein (p24) levels in the harvested cell culture media were determined by an EIA method as described by the manufacturer (SIAC; Frederick, Md.). Before infection, target cells (293 and 293/T) were plated in cell culture media. Control infections were performed using cell culture media from mock transfections (no DNA) or transfections containing the resistance test vector plasmid DNA without the envelope expression plasmid. One to three or more days after infectIon the media was removed and cell lysis buffer (Promega) was added to each well. Cell lysates were assayed for luciferase activity (FIG. 3). The inhibitory effect of the drug was determined using the following equation:
(§4) % luciferase inhibition=1−(RLUluc[drug]÷RLUluc)×100
(§5) where RLUluc [drug] is the relative light unit of luciferase activity in infected cells in the presence of drug and RLUluc is the Relative Light Unit of luciferase activity in infected cells in the absence of drug. IC50 values were obtained from the sigmoidal curves that were generated from the data by plotting the percent inhibition of luciferase activity vs. the log 10 drug concentration. The drug inhibition curves are shown in (FIG. 3).
(§6) Genotypic changes that are observed to correlate with changes in phenotypic patterns of drug susceptibility are evaluated by construction of resistance test vectors containing the specific mutation on a defined, wild-type (drug susceptible) genetic background. Mutations may be incorporated alone and/or in combination with other known drug resistance mutations that are thought to modulate the susceptibility of HIV to a certain drug or class of drugs. […]

[3] = test system: HIV-1 RT mutant resistance test vector M41L-A62V-T69SSA-T215Y-L210W-RTV; assay: Phenotypic susceptibility assay, site directed RTV M41L+A62V+T69SSA+L210W+T215Y; type: cell-based; settings: RTV with 41 + 62 + 69 + 210 + 215; 3 replicates
Description: as §1
as §2, with “Drug resistance was measured as the amount of drug required to inhibit by 50% the luciferase activity detected in the absence of drug (Inhibitory concentration 50%, IC50).” left out
(§7) Host cells were seeded in 10-cm-diameter dishes and were transfected several days after plating with resistance test vector plasmid DNA and the envelope expression vector. […] HIV capsid protein (p24) levels in the harvested cell culture media were determined by an EIA method as described by the manufacturer (SIAC; Frederick, Md.). […] The inhibitory effect of the drug was determined using the following equation: […]

[4] = test system: HIV-1 RT mutant resistance test vector A62V-T69SSA-T215Y-RTV; assay: Phenotypic susceptibility assay, site directed RTV A62V-T69SSA-T215Y; type: cell-based; settings: RTV with 62 + 69 + 215 (A62V, T69SSA, T215Y); 1 replicate
Description: as §1
(§8) The resistance test vectors containing a functional luciferase gene cassette were constructed and host cells were transfected with the resistance test vector DNA. […] The IC50 values were determined by plotting percent drug inhibition vs. log 10 drug concentration.
as §7

[5] = test system: HIV-1 RT mutant resistance test vector A62V-T69SSA-L74V-RTV; assay: Phenotypic susceptibility assay, site directed RTV A62V-T69SSA-L74V; type: cell-based; settings: RTV with 62 + 69 + 74V; 1 replicate
Description: as §1, §2
as §3, with “Cell lysates were assayed for luciferase activity (FIG. 3).” left out
as §4
as §5, with “The drug inhibition curves are shown in (FIG. 3).” left out

[6] = test system: HIV-1 RT mutant resistance test vector M41L-T69SSA-T215Y-L210W-RTV; assay: Phenotypic susceptibility assay, site directed RTV M41L+T69SSA+L210W+T215Y; type: cell-based; settings: RTV with 41 + 69 + 210 + 215; 3 replicates
Description: as §1
as §2, with “Drug resistance was measured as the amount of drug required to inhibit by 50% the luciferase activity detected in the absence of drug (Inhibitory concentration 50%, IC50).” left out
as §7

[7] = test system: HIV-1 RT mutant resistance test vector M41L-T69SSA-T215Y-L210W-V75M-RTV; assay: Phenotypic susceptibility assay, site directed RTV M41L+T69SSA+V75M+L210W+T215Y; type: cell-based; settings: RTV with 41 + 69 + 75M + 210 + 215; 1 replicate
Description: as §1, §8, §7

[8] = test system: HIV-1 RT mutant resistance test vector M41L-A62V-T69SSA-T215Y-RTV; assay: Phenotypic susceptibility assay, site directed RTV M41L+A62V+T69SSA+T215Y; type: cell-based; settings: RTV with 41 + 62 + 69 + 215; 3 replicates
Description: as §1, §2
as §3, with “Cell lysates were assayed for luciferase activity (FIG. 3).” left out
as §4
as §5, with “concentration.” for “concentration. The drug inhibition curves are shown in (FIG. 3).”
Mutations may be incorporated alone and/or in combination with other known drug resistance mutations that are thought to modulate the susceptibility of HIV to a certain drug or class of drugs. Mutations are introduced into the resistance test vector through any of the widely known methods for site-directed mutagenesis. In one embodiment of this invention the mega-primer PCR method for site-directed mutagenesis is used.

[9] = test system: AZT-resistant, 3TC-resistant and multi-drug resistant viruses; settings: cited from earlier work
[10] = test system: HIV with RT K70E mutation; settings: in vitro selection; cited from earlier work
[11] = test system: HIV with RT Lys65→Arg mutation; settings: Lys65→Arg (K65R); cited from earlier work
[12] = test system: HIV-1 RT mutant resistance test vector 41 + 62 + 69 + 75S + 210 + 215; assay: Phenotypic susceptibility assay, site directed RTV 41 + 62 + 69 + 75S + 210 + 215; type: cell-based; settings: RTV with 41 + 62 + 69 + 75S + 210 + 215; 1 replicate
Description: as §1, §2, §3, §4, §5, §6

[13] = test system: HIV-1 RT mutant resistance test vector 41 + 62 + 69 + 75M + 210 + 215; assay: Phenotypic susceptibility assay, site directed RTV 41 + 62 + 69 + 75M + 210 + 215; type: cell-based; settings: RTV with 41 + 62 + 69 + 75M + 210 + 215; 1 replicate
Description: as §1, §2, §3, §4, §5, §6

[14] = test system: HIV-1 RT mutant resistance test vector A62V; assay: Phenotypic susceptibility assay, site directed RTV A62V; type: cell-based; settings: RTV with A62V vs wild type RTV; 3 replicates
Description: as §1, §2, §3, §4, §5, §6

[15] = test system: HIV-1 RT mutant resistance test vector 41 + 210 + 215; assay: Phenotypic susceptibility assay, site directed RTV 41 + 210 + 215; type: cell-based; settings: RTV with 41 + 210 + 215; 3 replicates
Description: as §1, §2, §3, §4, §5, §6

[16] = test system: HIV-1 RT mutant resistance test vector M41L+A62V+T69SSA+M184V+T215Y; assay: Phenotypic susceptibility assay, site directed RTV M41L+A62V+T69SSA+M184V+T215Y; type: cell-based; settings: RTV with 41 + 62 + 69 + 184 + 215; 2 replicates
Description: as §1, §2, §3, §4, §5, §6

[17] = test system: HIV-1 RT mutant resistance test vector 41 + 69 + 184 + 215; assay: Phenotypic susceptibility assay, site directed RTV 41 + 69 + 184 + 215; type: cell-based; settings: RTV with 41 + 69 + 184 + 215; 2 replicates
Description: as §1, §2, §3, §4, §5, §6

[18] = test system: HIV-1 RT mutant resistance test vector 41 + 215 (M41L and T215Y); assay: Phenotypic susceptibility assay, site directed RTV 41 + 215; type: cell-based; settings: RTV with 41 + 215; 4 replicates
Description: as §1, §2, §3, §4, §5, §6

[19] = test system: HIV-1 RT mutant resistance test vector A62V+T69SSA; assay: Phenotypic susceptibility assay, site directed RTV A62V+T69SSA; type: cell-based; settings: RTV with 62 + 69 (A62V+T69SSA); 4 replicates
Description: as §1, §2, §3, §4, §5, §6

[20] = test system: HIV-1 RT mutant resistance test vector A62V+T69SSA+V75I; assay: Phenotypic susceptibility assay, site directed RTV A62V+T69SSA+V75I; type: cell-based; settings: RTV with 62 + 69 + 751 (A62V, T69SSA, V75I); 1 replicate
Description: as §1, §2, §3, §4, §5, §6

[21] = test system: HIV-1 RT mutant resistance test vector T69SSA; assay: Phenotypic susceptibility assay, site directed RTV T69SSA; type: cell-based; settings: RTV with T69SSA vs wild type RTV; 3 replicates
Description: as §1, §2, §3, §4, §5, §6

[22] = test system: HIV-1 RT mutant resistance test vector 41 + 184 + 215; assay: Phenotypic susceptibility assay, site directed RTV 41 + 184 + 215; type: cell-based; settings: RTV with 41 + 184 + 215; 3 replicates
Description: as §1, §2, §3, §4, §5, §6

[N-]=[N+]=N[C@H]1C[C@H](n2ccc(=O)[nH]c2=O)O[C@@H]1CO [AZU, 3′-azido-2′,3′-dideoxyuridine]
cross-resistance of ZDV-resistant strains [1]: cross-resistance

Cc1ccnc2c1NC(=O)c1cccnc1N2C1CC1 [NEV, nevirapine]
effect on susceptibility (words) [2]: slight increase in susceptibility to DEL and NEV
Average fold reduction in susceptibility [3]: 0.6 fold
Average fold reduction in susceptibility [4]: 0.6 fold
Average fold reduction in susceptibility [5]: 0.3 fold
Average fold reduction in susceptibility [6]: 0.42 fold
Average fold reduction in susceptibility [7]: 0.5 fold
Average fold reduction in susceptibility [8]: 0.8 fold

Nc1ncnc2c1ncn2CCOCP(=O)(O)O [adefovir]
sensitivity of resistant viruses [9]: remain sensitive to adefovir
fold reduction in susceptibility [10]: 9 fold
fold increase in IC50 / reduction in susceptibility [11]: 16 fold

CC(C)Nc1cccnc1N1CCN(C(=O)c2cc3cc(NS(C)(=O)=O)ccc3[nH]2)CC1 [DEL, delavirdine]
effect on susceptibility (words) [2]: slight increase in susceptibility to DEL and NEV
Average fold reduction in susceptibility [3]: 0.2 fold
Average fold reduction in susceptibility [4]: 0.3 fold
Average fold reduction in susceptibility [5]: 0.4 fold
Average fold reduction in susceptibility [6]: 0.13 fold
Average fold reduction in susceptibility [7]: 0.25 fold
Average fold reduction in susceptibility [8]: 0.2 fold

Nc1ccn([C@@H]2CS[C@H](CO)O2)c(=O)n1 [3TC, lamivudine]
Average fold reduction in susceptibility [12]: 31.67 fold
Average fold reduction in susceptibility [13]: 18.41 fold
Average fold reduction in susceptibility ([2]; RTV with 41 + 69 + 215 (M41L, T69SSA, T215Y), 2 replicates): 6.27 fold
Average fold reduction in susceptibility [14]: 0.54 fold
Average fold reduction in susceptibility [15]: 2.14 fold
Average fold reduction in susceptibility [16]: >110 fold
Average fold reduction in susceptibility [17]: >110 fold
Average fold reduction in susceptibility [18]: 1.89 fold
Average fold reduction in susceptibility [19]: 2.89 fold
Average fold reduction in susceptibility [20]: 4.08 fold
Average fold reduction in susceptibility [21]: 3.20 fold
Average fold reduction in susceptibility [22]: >110 fold
